These results are taken from ChEMBL document CHEMBL6078669, “Stereoisomers of cannabidiols and their pharmacological activities - A potentially novel direction for cannabinoids” (Bioorg Med Chem, 2025).

Assay [1] has as its target T1, Transient receptor potential cation channel subfamily V member 1 (Homo sapiens, UniProt Q8NER1). In words: Agonist activity at human TRPV1 receptor expressed in HEK293 cells assessed as effect on [Ca2+]i preincubated with capsazepine for 30 mins followed by compound addition by Fluo-3 probe based fluorescence analysis. It counts as cell-based.
A short description of assay [2]: Inhibition of [14C]-arachidonoylethanolamide uptake in rat RBL-2H3 cells assessed as increase in AEA level incubated for 5 mins by scintillation counting. It counts as functional, cell-based. To be noted: RBL-2H3, 5 min.
The target of assay [3] is Sodium channel protein type 9 subunit alpha (Homo sapiens, UniProt Q15858). Briefly: Inhibition of human Nav1.7 expressed in HEK293 cells by whole cell electrophysiology recording. It counts as cell-based.
Sequence of Sodium channel protein type 9 subunit alpha (Q15858 whole entry): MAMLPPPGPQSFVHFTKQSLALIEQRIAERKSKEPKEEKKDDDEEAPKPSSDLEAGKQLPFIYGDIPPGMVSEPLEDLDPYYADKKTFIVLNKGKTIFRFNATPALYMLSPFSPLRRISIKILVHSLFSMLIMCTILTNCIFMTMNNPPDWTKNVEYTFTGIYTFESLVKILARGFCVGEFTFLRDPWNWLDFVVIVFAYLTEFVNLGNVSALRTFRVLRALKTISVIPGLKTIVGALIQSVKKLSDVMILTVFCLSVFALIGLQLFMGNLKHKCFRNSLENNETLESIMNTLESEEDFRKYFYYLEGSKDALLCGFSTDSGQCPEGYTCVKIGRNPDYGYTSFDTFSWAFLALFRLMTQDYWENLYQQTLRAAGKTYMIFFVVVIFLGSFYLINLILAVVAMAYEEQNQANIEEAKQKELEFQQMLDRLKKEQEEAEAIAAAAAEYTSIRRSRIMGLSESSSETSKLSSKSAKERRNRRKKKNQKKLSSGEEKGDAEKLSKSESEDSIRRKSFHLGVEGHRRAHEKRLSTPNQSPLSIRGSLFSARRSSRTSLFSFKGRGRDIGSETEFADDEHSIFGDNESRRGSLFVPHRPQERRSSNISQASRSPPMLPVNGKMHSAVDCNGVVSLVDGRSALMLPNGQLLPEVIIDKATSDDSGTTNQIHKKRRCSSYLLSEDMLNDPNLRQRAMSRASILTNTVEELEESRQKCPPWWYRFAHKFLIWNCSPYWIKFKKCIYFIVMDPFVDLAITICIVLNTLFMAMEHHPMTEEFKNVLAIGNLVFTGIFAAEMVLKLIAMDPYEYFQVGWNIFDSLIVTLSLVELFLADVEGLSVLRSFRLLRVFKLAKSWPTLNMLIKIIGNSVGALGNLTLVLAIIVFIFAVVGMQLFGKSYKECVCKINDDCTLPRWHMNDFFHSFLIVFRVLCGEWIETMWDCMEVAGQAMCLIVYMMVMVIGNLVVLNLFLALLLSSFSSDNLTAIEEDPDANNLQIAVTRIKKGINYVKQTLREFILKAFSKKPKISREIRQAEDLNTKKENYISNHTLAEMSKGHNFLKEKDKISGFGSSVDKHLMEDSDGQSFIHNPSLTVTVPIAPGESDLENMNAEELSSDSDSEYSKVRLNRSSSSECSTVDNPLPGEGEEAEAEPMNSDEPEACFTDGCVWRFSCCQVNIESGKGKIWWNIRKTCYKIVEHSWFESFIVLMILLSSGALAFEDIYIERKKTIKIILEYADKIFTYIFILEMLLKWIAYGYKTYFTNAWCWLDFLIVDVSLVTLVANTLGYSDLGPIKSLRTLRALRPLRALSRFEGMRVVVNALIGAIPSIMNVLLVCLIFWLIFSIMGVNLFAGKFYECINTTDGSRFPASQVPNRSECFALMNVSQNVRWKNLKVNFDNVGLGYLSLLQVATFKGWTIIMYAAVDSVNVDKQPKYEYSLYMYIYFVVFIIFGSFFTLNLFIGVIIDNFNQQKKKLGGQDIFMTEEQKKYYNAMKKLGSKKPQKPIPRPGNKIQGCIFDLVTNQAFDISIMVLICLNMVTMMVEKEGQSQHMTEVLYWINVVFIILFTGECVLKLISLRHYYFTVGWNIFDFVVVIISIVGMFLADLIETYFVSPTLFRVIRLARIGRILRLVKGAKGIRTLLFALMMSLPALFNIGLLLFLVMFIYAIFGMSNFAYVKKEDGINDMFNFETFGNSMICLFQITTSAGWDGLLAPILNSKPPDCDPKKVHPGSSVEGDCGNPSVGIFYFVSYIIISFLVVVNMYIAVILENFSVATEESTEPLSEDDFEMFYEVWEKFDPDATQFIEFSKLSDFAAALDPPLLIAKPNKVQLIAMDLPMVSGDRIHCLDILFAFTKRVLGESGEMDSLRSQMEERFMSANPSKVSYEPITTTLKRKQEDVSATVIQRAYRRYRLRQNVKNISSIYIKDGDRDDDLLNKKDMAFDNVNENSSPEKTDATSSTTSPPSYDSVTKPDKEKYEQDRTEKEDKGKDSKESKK
The target in assay [4] is T2, Fatty-acid amide hydrolase 1 (Mus musculus, UniProt O08914).
T2 sequence (O08914 whole entry): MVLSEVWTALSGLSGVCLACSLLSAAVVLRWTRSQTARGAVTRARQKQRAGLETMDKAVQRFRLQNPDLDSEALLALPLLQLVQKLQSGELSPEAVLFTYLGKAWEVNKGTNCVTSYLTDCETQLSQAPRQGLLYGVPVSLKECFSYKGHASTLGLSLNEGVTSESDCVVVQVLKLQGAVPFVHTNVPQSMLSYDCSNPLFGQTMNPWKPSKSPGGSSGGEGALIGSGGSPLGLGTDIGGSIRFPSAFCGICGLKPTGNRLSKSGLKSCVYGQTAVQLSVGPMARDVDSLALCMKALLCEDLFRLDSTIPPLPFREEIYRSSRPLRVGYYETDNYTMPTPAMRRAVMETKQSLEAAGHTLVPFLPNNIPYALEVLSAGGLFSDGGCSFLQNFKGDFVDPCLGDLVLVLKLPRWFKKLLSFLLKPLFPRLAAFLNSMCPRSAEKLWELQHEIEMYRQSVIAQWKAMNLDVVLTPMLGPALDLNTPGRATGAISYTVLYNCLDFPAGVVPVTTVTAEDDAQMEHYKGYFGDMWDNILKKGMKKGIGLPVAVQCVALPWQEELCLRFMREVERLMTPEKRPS
In words: Inhibition of FAAH-mediated [14C]-AEA hydrolysis in mouse N18TG2 cell membrane incubated for 30 mins by scintillation counting. The class given is cell membranes.

Assay [5] concerns the target T3, Transient receptor potential cation channel subfamily V member 2 (Rattus norvegicus, UniProt Q9WUD2).
T3 sequence (Q9WUD2 whole entry): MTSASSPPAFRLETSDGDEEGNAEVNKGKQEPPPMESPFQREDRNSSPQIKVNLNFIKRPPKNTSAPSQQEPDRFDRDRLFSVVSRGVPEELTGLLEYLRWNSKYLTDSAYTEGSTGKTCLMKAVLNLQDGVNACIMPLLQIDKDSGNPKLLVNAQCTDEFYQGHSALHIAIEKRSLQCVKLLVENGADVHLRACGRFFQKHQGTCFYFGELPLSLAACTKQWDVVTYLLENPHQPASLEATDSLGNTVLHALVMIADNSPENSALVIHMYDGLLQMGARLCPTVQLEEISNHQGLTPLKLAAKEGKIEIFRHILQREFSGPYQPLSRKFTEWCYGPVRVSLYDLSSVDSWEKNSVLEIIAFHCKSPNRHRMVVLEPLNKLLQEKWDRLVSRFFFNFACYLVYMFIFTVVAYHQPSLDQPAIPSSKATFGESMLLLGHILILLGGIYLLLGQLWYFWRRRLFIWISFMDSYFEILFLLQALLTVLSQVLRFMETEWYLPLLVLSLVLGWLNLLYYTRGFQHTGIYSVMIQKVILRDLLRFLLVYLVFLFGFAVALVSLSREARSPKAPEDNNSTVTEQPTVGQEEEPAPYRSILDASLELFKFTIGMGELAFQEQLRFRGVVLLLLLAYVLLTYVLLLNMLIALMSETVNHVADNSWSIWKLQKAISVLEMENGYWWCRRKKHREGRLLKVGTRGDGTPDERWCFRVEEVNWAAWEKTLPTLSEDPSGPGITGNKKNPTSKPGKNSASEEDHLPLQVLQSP
Briefly: Agonist activity at recombinant rat TRPV2 expressed in HEK293 cells assessed as increase in [Ca2+]i by Fluo-4AM based calcium assay. It counts as cell-based.

Assay [6] addresses Transient receptor potential cation channel subfamily A member 1 (Rattus norvegicus, UniProt Q6RI86). In words: Agonist activity at recombinant rat TRPA1 expressed in HEK293 cells assessed as increase in [Ca2+]i by Fluo-4AM based calcium assay. The class given is cell-based.
For assay [7], the target named is Transient receptor potential cation channel subfamily M member 8 (Rattus norvegicus, UniProt Q8R455). Briefly: Antagonist activity at recombinant rat TRPM8 expressed in HEK293 cells assessed as inhibition of icillin-induced intracellular calcium level preincubated with compound for 5 mins followed by icillin addition by Fluo-4AM based calcium assay. The class given is cell-based.

In assay [8] the target is T1, Transient receptor potential cation channel subfamily V member 1. In words: Agonist activity at recombinant human TRPV1 expressed in HEK293 cells assessed as increase in [Ca2+]i level by Fluo-4AM based calcium assay. The class given is cell-based.
The target of assay [9] is G-protein coupled receptor 55 (Homo sapiens, UniProt Q9Y2T6). In words: Antagonist activity at GPR55 (unknown origin).
Sequence of G-protein coupled receptor 55 (Q9Y2T6 whole entry): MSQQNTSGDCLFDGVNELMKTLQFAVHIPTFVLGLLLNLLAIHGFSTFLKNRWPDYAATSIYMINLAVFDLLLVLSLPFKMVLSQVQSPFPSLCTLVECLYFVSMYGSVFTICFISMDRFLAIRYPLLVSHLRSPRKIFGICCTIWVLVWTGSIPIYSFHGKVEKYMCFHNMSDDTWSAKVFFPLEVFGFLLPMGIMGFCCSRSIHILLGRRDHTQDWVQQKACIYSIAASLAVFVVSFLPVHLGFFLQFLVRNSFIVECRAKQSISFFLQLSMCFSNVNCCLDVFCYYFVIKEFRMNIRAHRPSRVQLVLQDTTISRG
Assay [10] has as its target T4, Equilibrative nucleoside transporter 1 (Homo sapiens, UniProt Q99808).
T4 sequence (Q99808 whole entry): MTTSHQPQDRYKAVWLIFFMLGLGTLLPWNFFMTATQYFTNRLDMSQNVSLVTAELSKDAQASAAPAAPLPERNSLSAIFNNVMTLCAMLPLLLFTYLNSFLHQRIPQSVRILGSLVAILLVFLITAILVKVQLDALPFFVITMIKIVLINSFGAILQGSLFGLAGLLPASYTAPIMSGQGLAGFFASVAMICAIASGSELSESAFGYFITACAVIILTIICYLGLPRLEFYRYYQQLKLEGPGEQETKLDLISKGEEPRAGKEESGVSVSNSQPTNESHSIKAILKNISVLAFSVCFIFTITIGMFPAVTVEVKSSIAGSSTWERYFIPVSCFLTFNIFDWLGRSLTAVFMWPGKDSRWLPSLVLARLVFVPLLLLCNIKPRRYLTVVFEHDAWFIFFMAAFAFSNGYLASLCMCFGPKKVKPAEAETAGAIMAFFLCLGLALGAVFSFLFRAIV
In words: Inhibition of ENT-1 (unknown origin).

Assay [11] addresses T5, 5-hydroxytryptamine receptor 1A (Homo sapiens, UniProt P08908).
T5 sequence (P08908 whole entry): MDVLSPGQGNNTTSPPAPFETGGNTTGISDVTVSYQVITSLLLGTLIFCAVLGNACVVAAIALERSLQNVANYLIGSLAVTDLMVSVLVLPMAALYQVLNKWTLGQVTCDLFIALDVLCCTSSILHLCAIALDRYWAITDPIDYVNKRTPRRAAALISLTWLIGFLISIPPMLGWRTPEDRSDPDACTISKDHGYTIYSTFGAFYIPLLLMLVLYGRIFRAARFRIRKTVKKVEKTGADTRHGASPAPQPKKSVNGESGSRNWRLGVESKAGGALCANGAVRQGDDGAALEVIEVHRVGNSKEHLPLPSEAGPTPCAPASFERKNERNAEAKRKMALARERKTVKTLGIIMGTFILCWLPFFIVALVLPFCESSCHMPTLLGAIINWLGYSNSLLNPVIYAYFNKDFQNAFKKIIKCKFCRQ
In words: Agonist activity at 5-HT1A (unknown origin). It counts as functional.

Assay [12] addresses T6, D(2) dopamine receptor (Homo sapiens, UniProt P14416). Briefly: Partial agonist activity at D2-high receptor (unknown origin).
Assay [13] has as its target T6, D(2) dopamine receptor. Briefly: Partial agonist activity at D2-low receptor (unknown origin).

T6 sequence (P14416 whole entry): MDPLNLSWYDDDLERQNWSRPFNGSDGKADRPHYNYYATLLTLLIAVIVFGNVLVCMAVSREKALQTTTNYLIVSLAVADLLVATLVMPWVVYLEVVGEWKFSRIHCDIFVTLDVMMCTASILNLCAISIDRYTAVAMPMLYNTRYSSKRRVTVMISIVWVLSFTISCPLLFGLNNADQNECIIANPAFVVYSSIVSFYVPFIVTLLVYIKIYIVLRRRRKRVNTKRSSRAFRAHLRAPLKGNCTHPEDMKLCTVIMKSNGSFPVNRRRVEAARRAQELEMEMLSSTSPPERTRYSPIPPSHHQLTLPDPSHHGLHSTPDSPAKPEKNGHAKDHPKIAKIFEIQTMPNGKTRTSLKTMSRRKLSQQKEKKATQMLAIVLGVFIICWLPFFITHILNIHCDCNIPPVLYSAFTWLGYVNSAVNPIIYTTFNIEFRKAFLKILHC
T1 sequence (Q8NER1 whole entry): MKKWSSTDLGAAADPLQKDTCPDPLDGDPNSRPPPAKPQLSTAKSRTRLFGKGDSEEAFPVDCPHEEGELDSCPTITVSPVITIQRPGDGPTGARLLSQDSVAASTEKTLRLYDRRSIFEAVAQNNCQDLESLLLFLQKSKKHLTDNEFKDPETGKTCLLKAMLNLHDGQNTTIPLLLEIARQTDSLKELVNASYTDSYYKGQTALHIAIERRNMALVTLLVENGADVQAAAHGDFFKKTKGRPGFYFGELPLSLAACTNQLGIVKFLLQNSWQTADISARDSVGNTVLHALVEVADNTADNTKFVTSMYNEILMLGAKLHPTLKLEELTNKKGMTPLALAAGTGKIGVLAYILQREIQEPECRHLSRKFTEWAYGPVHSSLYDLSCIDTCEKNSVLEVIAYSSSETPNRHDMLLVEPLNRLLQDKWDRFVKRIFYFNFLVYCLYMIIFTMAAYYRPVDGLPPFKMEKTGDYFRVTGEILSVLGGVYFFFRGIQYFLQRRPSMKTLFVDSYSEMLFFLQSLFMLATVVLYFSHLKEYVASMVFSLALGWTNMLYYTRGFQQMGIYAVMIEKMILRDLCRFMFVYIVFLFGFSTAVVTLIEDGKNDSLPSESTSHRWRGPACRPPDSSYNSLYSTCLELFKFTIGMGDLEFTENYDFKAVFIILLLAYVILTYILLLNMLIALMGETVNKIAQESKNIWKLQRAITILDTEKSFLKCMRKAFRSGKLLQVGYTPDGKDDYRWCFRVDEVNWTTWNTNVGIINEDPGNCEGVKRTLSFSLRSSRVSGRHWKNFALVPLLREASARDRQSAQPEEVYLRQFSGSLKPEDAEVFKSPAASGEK
Sequence of Transient receptor potential cation channel subfamily A member 1 (Q6RI86 whole entry): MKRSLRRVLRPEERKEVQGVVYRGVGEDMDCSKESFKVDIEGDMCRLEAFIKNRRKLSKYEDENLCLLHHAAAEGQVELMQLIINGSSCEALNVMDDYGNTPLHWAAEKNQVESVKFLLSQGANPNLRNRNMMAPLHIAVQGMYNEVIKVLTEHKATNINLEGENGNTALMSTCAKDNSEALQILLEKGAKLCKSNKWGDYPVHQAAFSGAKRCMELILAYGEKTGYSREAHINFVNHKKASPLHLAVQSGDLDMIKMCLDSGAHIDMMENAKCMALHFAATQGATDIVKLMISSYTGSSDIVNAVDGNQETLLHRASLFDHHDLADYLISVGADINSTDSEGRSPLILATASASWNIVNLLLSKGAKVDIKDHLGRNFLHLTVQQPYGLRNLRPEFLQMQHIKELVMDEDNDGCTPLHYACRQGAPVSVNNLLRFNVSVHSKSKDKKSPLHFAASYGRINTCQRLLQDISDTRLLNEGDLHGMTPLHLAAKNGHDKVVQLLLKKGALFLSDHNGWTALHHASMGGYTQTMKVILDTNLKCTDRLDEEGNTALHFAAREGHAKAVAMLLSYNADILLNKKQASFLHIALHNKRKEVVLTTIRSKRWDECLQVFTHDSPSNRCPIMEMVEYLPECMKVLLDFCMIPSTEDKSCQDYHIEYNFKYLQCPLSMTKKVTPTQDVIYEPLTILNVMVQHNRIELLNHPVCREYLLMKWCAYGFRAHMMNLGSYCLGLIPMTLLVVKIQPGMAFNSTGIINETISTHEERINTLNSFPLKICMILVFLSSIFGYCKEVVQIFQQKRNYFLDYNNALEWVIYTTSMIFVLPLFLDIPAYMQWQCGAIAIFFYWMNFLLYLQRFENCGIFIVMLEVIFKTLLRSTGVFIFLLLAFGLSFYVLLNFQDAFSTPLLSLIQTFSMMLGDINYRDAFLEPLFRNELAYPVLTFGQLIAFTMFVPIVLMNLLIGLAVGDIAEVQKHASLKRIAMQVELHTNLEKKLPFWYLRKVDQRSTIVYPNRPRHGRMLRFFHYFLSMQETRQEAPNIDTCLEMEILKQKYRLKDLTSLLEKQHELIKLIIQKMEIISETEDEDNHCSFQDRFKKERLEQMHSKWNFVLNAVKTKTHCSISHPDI

Take `C=C(C)[C@@H]1CCC(C)=C[C@H]1c1c(O)cc(CCCCC)cc1O` [CANNABIDIOL]: the EC50 (commonly the concentration needed to bring the measured effect to its halfway point) is 3.2 µM in assay [1]; 1.25 µM in assay [5]; 0.11 µM in [6]; 1 µM in assay [8]; 16 µM in [11]. In addition, the IC50 – broadly, the concentration that inhibits the measured activity by half – in assay [2] was 22 µM; in [3], 1.82 µM; in assay [4] it was 27.5 µM; in [7], 0.06 µM; in assay [9], 0.445 µM. The results for the Ki (in [10]; at D(2) dopamine receptor [12]; at D(2) dopamine receptor [13]) were 0.25 µM, 66 pM and 2.8 µM, respectively.
